Tests used:
POAAN [1] = assay: Herbicidal pre-emergence action 2b (doubly sown, 1280 g/ha); type: in vivo, Poa annua; conditions: doubly sown pots, dosage 1280 g/ha, visual scoring after about 3 weeks
Outline: (§1)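 Sandy loam pots, one mono- or dicot species each, double sowing; seeds covered. Aqueous WP/EC spray + 0.5% additive, 600 L/ha, onto cover soil. GH, ~3 wk, visual % vs control.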

POAAN [2] = assay: Herbicidal post-emergence action 1b (twin sowing, 1280 g/ha); type: in vivo, Poa annua; conditions: dosage 1280 g/ha, visual rating about 3 weeks after treatment
Outline: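 Compounds, formulated as wettable powders or emulsion concentrates, were applied to foliage of greenhouse-grown weeds at the one-leaf stage with 0.5% additive in 600 L/ha water. Pots held one monocot and one dicot species in sandy loam. Efficacy was scored visually after about 3 weeks versus controls.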

AMARE [3] = assay: Herbicidal pre-emergence action 2b (doubly sown, 1280 g/ha); type: in vivo, Amaranthus retroflexus; conditions: doubly sown pots, dosage 1280 g/ha, visual scoring after about 3 weeks
Outline: as §1

ABUTH = assay: Herbicidal post-emergence action 1b (twin sowing, 1280 g/ha); type: in vivo, Abutilon theophrasti; conditions: dosage 1280 g/ha, visual rating about 3 weeks after treatment
Description: (§2) [table] b) Seeds of mono- and dicotyledonous weed plants are placed in plastic pots in sandy loam soil (twin sowing with one species each of mono- or dicotyledonous weed plants per pot), covered with soil and cultivated in a greenhouse under controlled growth conditions. 2 to 3 weeks after sowing, the test plants are treated at the one-leaf stage. The compounds of the invention, formulated in the form of wettable powders (WP) or as emulsion concentrates (EC), are applied to the green parts of the plants as aqueous suspension or emulsion with addition of 0.5% additive at a water application rate equivalent to 600 litres per hectare. After the test plants have been kept in the greenhouse under optimum growth conditions for about 3 weeks, the activity of the preparations is rated visually in comparison to untreated controls. For example, 100% activity=the plants have died, 0% activity=like control plants. Tables A16 to A21 below show the effects of selected compounds of the general formula (I) according to Tables 1 and 2 on various harmful plants and at an application rate corresponding to 1280 g/ha, which were obtained by the experimental procedure mentioned above.

DIGSA [4] = assay: Herbicidal pre-emergence action 2b (doubly sown, 1280 g/ha); type: in vivo, Digitaria sanguinalis; conditions: doubly sown pots, dosage 1280 g/ha, visual scoring after about 3 weeks
Description: [table] b) Seeds of mono- and dicotyledonous weed plants are placed in plastic pots in sandy loam soil (doubly sown with one species each of mono- or dicotyledonous weed plants per pot) and covered with soil. The compounds of the invention, formulated in the form of wettable powders (WP) or as emulsion concentrates (EC), are then applied onto the surface of the covering soil as aqueous suspension or emulsion with addition of 0.5% additive at a water application rate equivalent to 600 litres per hectare. After the treatment, the pots are placed in a greenhouse and kept under good growth conditions for the trial plants. After about 3 weeks, the effect of the preparations is scored visually in comparison with untreated controls as percentages. For example, 100% activity=the plants have died, 0% activity=like control plants. Tables B16 to B21 below show the effects of selected compounds of the general formula (I) according to Tables 1 and 2 on various harmful plants and at an application rate corresponding to 1280 g/ha, which were obtained by the experimental procedure mentioned above.

STEME [5] = assay: as above; type: in vivo, Stellaria media; conditions: doubly sown pots, dosage 1280 g/ha, visual scoring after about 3 weeks
Outline: as §1

ECHCG [6] = assay: as above; type: in vivo, Echinochloa crus-galli; conditions: doubly sown pots, dosage 1280 g/ha, visual scoring after about 3 weeks
Outline: as §1

MATIN [7] = assay: as above; type: in vivo, Matricaria inodora; conditions: doubly sown pots, dosage 1280 g/ha, visual scoring after about 3 weeks
Outline: as §1

ECHCG [8] = assay: Herbicidal post-emergence action 1b (twin sowing, 1280 g/ha); type: in vivo, Echinochloa crus-galli; conditions: dosage 1280 g/ha, visual rating about 3 weeks after treatment
Description: as §2

MATIN [9] = assay: as above; type: in vivo, Matricaria inodora; conditions: dosage 1280 g/ha, visual rating about 3 weeks after treatment
Description: as §2

STEME [10] = assay: as above; type: in vivo, Stellaria media; conditions: dosage 1280 g/ha, visual rating about 3 weeks after treatment
Description: as §2

DIGSA [11] = assay: as above; type: in vivo, Digitaria sanguinalis; conditions: dosage 1280 g/ha, visual rating about 3 weeks after treatment
Description: as §2

VIOTR = assay: Herbicidal pre-emergence action 2a (greenhouse pots, visual scoring); type: in vivo, Viola tricolor; conditions: dosage 320 g/ha, visual scoring after about 3 weeks vs untreated controls
Description: [table] a) Seeds of monocotyledonous and dicotyledonous weed plants and crop plants are placed in plastic or organic plant pots and covered with soil. The compounds of the invention, formulated in the form of wettable powders (WP) or as emulsion concentrates (EC), are then applied onto the surface of the covering soil as aqueous suspension or emulsion with addition of 0.5% additive at a water application rate of 600 1/ha (converted). After the treatment, the pots are placed in a greenhouse and kept under good growth conditions for the trial plants. After about 3 weeks, the effect of the preparations is scored visually in comparison with untreated controls as percentages. For example, 100% activity=the plants have died, 0% activity=like control plants. Tables B1 to B15 below show the effects of selected compounds of the general formula (I) according to Tables 1 and 2 on various harmful plants and an application rate corresponding to 320 g/ha and/or 80 g/ha, which were obtained by the experimental procedure mentioned above.

LOLRI = assay: as above; type: in vivo, Lolium rigidum; conditions: dosage 320 g/ha, visual scoring after about 3 weeks vs untreated controls
Outline: (§3)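 Visual scoring after roughly 3 weeks, as percent effect relative to untreated pots (0% = like control, 100% = dead). Seeds were covered with soil, then the surface received aqueous WP/EC suspension or emulsion (0.5% additive, 600 l/ha) at 320 and/or 80 g/ha.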

AMARE [12] = assay: as above; type: in vivo, Amaranthus retroflexus; conditions: dosage 320 g/ha, visual scoring after about 3 weeks vs untreated controls
Outline: as §3

POLCO = assay: as above; type: in vivo, Polygonum convolvulus; conditions: dosage 320 g/ha, visual scoring after about 3 weeks vs untreated controls
Outline: as §3

AVEFA [13] = assay: Herbicidal post-emergence action 1a (greenhouse pots, visual rating); type: in vivo, Avena fatua; conditions: Dosage 80 g/ha; rated visually about 3 weeks after treatment; 100% = plants have died, 0% = like control plants
Outline: (§4)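 Visual scoring versus untreated plants (100% = plants dead, 0% = as control) followed roughly 3 weeks in the greenhouse after treatment. Plants grown in sandy loam pots had been sprayed on green parts at the one-leaf stage, 2–3 weeks post-sowing, with aqueous WP/EC preparations containing 0.5% additive, 600 l/ha, at 320 and/or 80 g/ha.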

ALOMY [14] = assay: as above; type: in vivo, Alopecurus myosuroides; conditions: Dosage 80 g/ha; rated visually about 3 weeks after treatment; 100% = plants have died, 0% = like control plants
Outline: as §4

AMARE [15] = assay: as above; type: in vivo, Amaranthus retroflexus; conditions: dosage 80 g/ha, visual rating about 3 weeks after treatment
Outline: as §4

ALOMY [16] = assay: Herbicidal pre-emergence action 2a (greenhouse pots, visual scoring); type: in vivo, Alopecurus myosuroides; conditions: dosage 320 g/ha, visual scoring after about 3 weeks
Outline: as §3

VERPE = assay: as above; type: in vivo, Veronica persica; conditions: dosage 320 g/ha, visual scoring after about 3 weeks vs untreated controls
Outline: as §3

AVEFA [17] = assay: as above; type: in vivo, Avena fatua; conditions: dosage 320 g/ha, visual scoring after about 3 weeks
Outline: as §3

Row | Structure (SMILES) | Pre-emergence action at 1280 g/ha against POAAN in % (POAAN [1]) [%] | Post-emergence action at 1280 g/ha against POAAN in % (POAAN [2]) [%] | Pre-emergence action at 1280 g/ha against AMARE in % (AMARE [3]) [%] | Post-emergence action at 1280 g/ha against ABUTH in % (ABUTH) [%] | Pre-emergence action at 1280 g/ha against DIGSA in % (DIGSA [4]) [%] | Pre-emergence action at 1280 g/ha against STEME in % (STEME [5]) [%] | Pre-emergence action at 1280 g/ha against ECHCG in % (ECHCG [6]) [%] | Pre-emergence action at 1280 g/ha against MATIN in % (MATIN [7]) [%] | Post-emergence action at 1280 g/ha against ECHCG in % (ECHCG [8]) [%] | Post-emergence action at 1280 g/ha against MATIN in % (MATIN [9]) [%] | Post-emergence action at 1280 g/ha against STEME in % (STEME [10]) [%] | Post-emergence action at 1280 g/ha against DIGSA in % (DIGSA [11]) [%] | also measured
1 | CC(Oc1nn(-c2cnccn2)c(-c2ccc(F)nc2)c1Br)C(=O)O (racemic) [Example I-24] | 100 | 100 | 90 | 90 | 100 | 90 | – | – | – | – | – | – | –
2 | COC(=O)[C@@H](C)Oc1nn(-c2cnccn2)c(-c2cccnc2)c1Br [Example I-38] | 100 | 100 | 100 | – | 100 | 100 | 100 | 100 | 100 | 90 | 100 | 90 | –
3 | COC(=O)COc1nn(-c2cnccn2)c(-c2cnc(F)c(F)c2)c1Br [Example I-42] | 100 | 100 | 90 | – | 100 | 90 | – | 90 | – | 100 | – | 90 | –
4 | CCOC(=O)COc1nn(-c2cnccn2)c(-c2ccc(F)nc2)c1C(F)(F)F [Example I-66] | 100 | 90 | 100 | 90 | 100 | 100 | 90 | 100 | – | 90 | – | – | –
5 | CC(C)=NOC(=O)COc1nn(-c2cnccn2)c(-c2ccc(F)nc2)c1Br [Example I-69] | 100 | 90 | 100 | – | 100 | 100 | 100 | 100 | 90 | 90 | 90 | 90 | –
6 | CCOC(=O)COc1nn(-c2nccnc2Cl)c(-c2ccc(F)nc2)c1Br [Example I-71] | 100 | 100 | 100 | – | 100 | 100 | 100 | 100 | 100 | 100 | – | 90 | –
7 | COC(=O)[C@@H](C)Oc1nn(-c2nccnc2Cl)c(-c2ccc(F)nc2)c1Br [Example I-72] | 100 | 100 | 100 | – | 100 | 100 | 100 | 100 | 100 | 100 | 90 | 100 | Pre-emergence action against VIOTR in % (VIOTR): 90%; Pre-emergence action against LOLRI in % (LOLRI): 100%; Pre-emergence action against AMARE in % (AMARE [12]): 100%; Pre-emergence action against POLCO in % (POLCO): 90%; Post-emergence action against AVEFA in % (AVEFA [13]): 90%; Post-emergence action against ALOMY in % (ALOMY [14]): 90%; Post-emergence action against AMARE in % (AMARE [15]): 80%; Pre-emergence action against ALOMY in % (ALOMY [16]): 90%; Pre-emergence action against VERPE in % (VERPE): 80%; Pre-emergence action against AVEFA in % (AVEFA [17]): 80%
8 | O=C(O)COc1nn(-c2nccnc2Cl)c(-c2ccc(F)nc2)c1Br [Example I-73] | 100 | 100 | 100 | 90 | – | 100 | 100 | 100 | 100 | 100 | – | – | –
9 | CCOC(=O)COc1nn(-c2nccnc2F)c(-c2ccc(F)c(F)c2)c1Br [Example I-74] | 100 | 90 | 100 | – | 100 | 100 | – | 100 | – | 90 | – | 90 | –

Source: patent US20230167088A1, “1-PYRAZINYLPYRAZOLYL-3-OXYALKYL ACIDS AND THEIR DERIVATIVES, AND THEIR USE FOR CONTROL OF UNDESIRED PLANT GROWTH” (BAYER AKTIENGESELLSCHAFT, priority 2020, published 2023)
